Patent US7160888B2, “[1,8]naphthyridin-2-ones and related compounds for the treatment of schizophrenia” (Warner Lambert Company LLC, priority 2003, dated 2007)

Target: D2 receptor (Homo sapiens, UniProt P14416)
Test: [3H]Thymidine uptake assay for D2 intrinsic activity
Assay type: cell-based
Details: Table 1; test compound 1 μM; 1 μM Quinpirole = 100% intrinsic activity

D2 receptor, sequence (P14416 whole entry): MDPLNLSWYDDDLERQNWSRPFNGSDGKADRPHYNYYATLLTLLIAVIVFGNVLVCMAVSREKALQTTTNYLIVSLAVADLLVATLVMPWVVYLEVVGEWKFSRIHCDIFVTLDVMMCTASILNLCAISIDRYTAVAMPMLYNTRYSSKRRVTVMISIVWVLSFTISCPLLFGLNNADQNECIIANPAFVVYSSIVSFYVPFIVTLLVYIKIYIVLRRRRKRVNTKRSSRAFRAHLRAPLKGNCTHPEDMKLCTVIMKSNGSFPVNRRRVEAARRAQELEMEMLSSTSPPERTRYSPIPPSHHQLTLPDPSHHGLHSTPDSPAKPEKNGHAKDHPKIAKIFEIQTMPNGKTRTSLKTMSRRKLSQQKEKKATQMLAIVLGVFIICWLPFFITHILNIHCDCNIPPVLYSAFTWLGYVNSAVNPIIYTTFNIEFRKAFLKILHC

First: CC(C)COc1ccccc1N1CCN(CCCCOc2ccc3c(n2)NC(=O)CC3)CC1 [Example A27, 7-{4-[4-(2-Isobutoxy-phenyl)-piperazin-1-yl]-butoxy}-3,4-dihydro-1H-[1,8]naphthyridin-2-one]
Second: CCc1ccccc1N1CCN(CCCCOc2ccc3c(n2)NC(=O)CC3)CC1 [Example A35, 7-{4-[4-(2-Ethyl-phenyl)-piperazin-1-yl]-butoxy}-3,4-dihydro-1H-[1,8]naphthyridin-2-one]
The Emax at 1 µM of the first is higher: 38% for the first, 24% for the second.

Going from `CCc1c(Cl)cccc1N1CCN(CCCCOc2ccc3c(n2)NC(=O)CC3)CC1` [Example A29, 7-{4-[4-(3-Chloro-2-ethyl-phenyl)-piperazin-1-yl]-butoxy}-3,4-dihydro-1H-[1,8]naphthyridin-2-one] to `CCc1c(F)cccc1N1CCN(CCCCOc2ccc3c(n2)NC(=O)CC3)CC1` [Example A31, 7-{4-[4-(2-Ethyl-3-fluoro-phenyl)-piperazin-1-yl]-butoxy}-3,4-dihydro-1H-[1,8]naphthyridin-2-one], the Emax at 1 µM rises from 20% to 26%.

Compared with `CC(=O)c1c(F)cccc1N1CCN(CCCCOc2ccc3c(n2)NC(=O)CC3)CC1` [Example A30, 7-{4-[4-(2-Acetyl-3-fluoro-phenyl)-piperazin-1-yl]-butoxy}-3,4-dihydro-1H-[1,8]naphthyridin-2-one], `CC(=O)c1ccccc1N1CCN(CCCCOc2ccc3c(n2)NC(=O)CC3)CC1` [Example A34, 7-{4-[4-(2-Acetyl-phenyl)-piperazin-1-yl]-butoxy}-3,4-dihydro-1H-[1,8]naphthyridin-2-one] is lower in Emax at 1 µM: 11% for the first, 8% for the second.

Going from `CC(=O)c1cccc(N2CCN(CCCCOc3ccc4c(n3)NC(=O)CC4)CC2)c1` [Example A33, 7-{4-[4-(3-Acetyl-phenyl)-piperazin-1-yl]-butoxy}-3,4-dihydro-1H-[1,8]naphthyridin-2-one] to `O=C1CCc2ccc(OCCCCN3CCN(c4cccc(C(F)(F)F)c4)CC3)nc2N1` [Example A38, 7-{4-[4-(3-Trifluoromethyl-phenyl)-piperazin-1-yl]-butoxy}-3,4-dihydro-1H-[1,8]naphthyridin-2-one], the Emax at 1 µM falls from 31% to 23%.

Compared with `O=C1CCc2ccc(OCCCCN3CCN(c4ccccc4C(F)(F)F)CC3)nc2N1` [Example A37, 7-{4-[4-(2-Trifluoromethyl-phenyl)-piperazin-1-yl]-butoxy}-3,4-dihydro-1H-[1,8]naphthyridin-2-one], `CC(F)(F)c1ccccc1N1CCN(CCCCOc2ccc3c(n2)NC(=O)CC3)CC1` [Example A42, 7-(4-{4-[2-(1,1-Difluoro-ethyl)-phenyl]-piperazin-1-yl}-butoxy)-3,4-dihydro-1H-[1,8]naphthyridin-2-one] is lower in Emax at 1 µM: 46% for the first, 28% for the second.

Compared with `O=C1CCc2ccc(OCCCCN3CCN(c4ccccc4)CC3)nc2N1` [Example A39, 7-[4-(4-phenyl-piperazin-1-yl)-butoxy]-3,4-dihydro-1H-[1,8]naphthyridin-2-one], `O=C1CCc2ccc(OCCCCN3CCN(c4ccc(F)cc4)CC3)nc2N1` [Example A40, 7-{4-[4-(4-Fluoro-phenyl)-piperazin-1-yl]-butoxy}-3,4-dihydro-1H-[1,8]naphthyridin-2-one] is lower in Emax at 1 µM: 56% for the first, 32% for the second.

First: O=C1CCc2ccc(OCCCCN3CCN(c4ccc(F)cc4F)CC3)nc2N1 [Example A41, 7-{4-[4-(2,4-Difluoro-phenyl)-piperazin-1-yl]-butoxy}-3,4-dihydro-1H-[1,8]naphthyridin-2-one]
Second: Cc1cccc(N2CCN(CCCCOc3ccc4c(n3)NC(=O)CC4)CC2)n1 [Example A44, 7-{4-[4-(6-Methyl-pyridin-2-yl)-piperazin-1-yl]-butoxy}-3,4-dihydro-1H-[1,8]naphthyridin-2-one]
The Emax at 1 µM of the first is lower: 28% for the first, 51% for the second.

First: O=C1CCc2ccc(OCCCCN3CCN(c4ccccn4)CC3)nc2N1 [Example A43, 7-[4-(4-Pyridin-2-yl-piperazin-1-yl)-butoxy]-3,4-dihydro-1H-[1,8]naphthyridin-2-one]
Second: CCc1cccc(N2CCN(CCCCOc3ccc4c(n3)NC(=O)CC4)CC2)n1 [Example A45, 7-{4-[4-(6-Ethyl-pyridin-2-yl)-piperazin-1-yl]-butoxy}-3,4-dihydro-1H-[1,8]naphthyridin-2-one]
The Emax at 1 µM of the first is higher: 75% for the first, 34% for the second.

Going from `O=C1CCc2ccc(OCCCCN3CCN(c4cccc(C5CC5)n4)CC3)nc2N1` [Example A46, 7-{4-[4-(6-Cyclopropyl-pyridin-2-yl)-piperazin-1-yl]-butoxy}-3,4-dihydro-1H-[1,8]naphthyridin-2-one] to `O=C1CCc2ccc(OCCCCN3CCN(c4cccc5ccccc45)CC3)nc2N1` [Example A48, 7-[4-(4-Naphthalen-1-yl-piperazin-1-yl)-butoxy]-3,4-dihydro-1H-[1,8]naphthyridin-2-one], the Emax at 1 µM falls from 41% to 34%.

`O=C1CCc2ccc(OCCCCN3CCN(c4cc(F)cc5c4CCCC5)CC3)nc2N1` [Example A50, 7-{4-[4-(3-Fluoro-5,6,7,8-tetrahydro-naphthalen-1-yl)-piperazin-1-yl]-butoxy}-3,4-dihydro-1H-[1,8]naphthyridin-2-one] showed an Emax at 1 µM of 14%.

Same assay, conditions: Table 2; test compound 1 μM; 1 μM Quinpirole = 100% intrinsic activity

`Cc1cc2c(N3CCN(CCCCOc4ccc5c(n4)NC(=O)CC5)CC3)cccc2[nH]1` [Example A27′, 7-{4-[4-(2-Methyl-1H-indol-4-yl)-piperazin-1-yl]-butoxy}-3,4-dihydro-1H-[1,8]naphthyridin-2-one] and `O=C1CCc2ccc(OCCCCN3CCN(c4cccc5sccc45)CC3)nc2N1` [Example A28′, 7-[4-(4-Benzo[b]thiophen-4-yl-piperazin-1-yl)-butoxy]-3,4-dihydro-1H-[1,8]naphthyridin-2-one] are the same in Emax at 1 µM: 21% for the first, 21% for the second.

Compared with `O=C1CCc2ccc(OCCCCN3CCN(c4cccc5nonc45)CC3)nc2N1` [Example A29′, 7-[4-(4-Benzo[1,2,5]oxadiazol-4-yl-piperazin-1-yl)-butoxy]-3,4-dihydro-1H-[1,8]naphthyridin-2-one], `O=C1CCc2ccc(OCCCCN3CCN(c4cccc5nsnc45)CC3)nc2N1` [Example A30′, 7-[4-(4-Benzo[1,2,5]thiadiazol-4-yl-piperazin-1-yl)-butoxy]-3,4-dihydro-1H-[1,8]naphthyridin-2-one] is higher in Emax at 1 µM: 33% for the first, 41% for the second.

Compared with `CN1CCCc2c1cccc2N1CCN(CCCCOc2ccc3c(n2)NC(=O)CC3)CC1` [Example A32′, 7-{4-[4-(1-Methyl-1,2,3,4-tetrahydro-quinolin-5-yl)-piperazin-1-yl]-butoxy}-3,4-dihydro-1H-[1,8]naphthyridin-2-one], `CCN1CCCc2c1cccc2N1CCN(CCCCOc2ccc3c(n2)NC(=O)CC3)CC1` [Example A33′, 7-{4-[4-(1-Ethyl-1,2,3,4-tetrahydro-quinolin-5-yl)-piperazin-1-yl]-butoxy}-3,4-dihydro-1H-[1,8]naphthyridin-2-one] is lower in Emax at 1 µM: 27% for the first, 18% for the second.

Compared with `O=C1CCc2ccc(OCCCCN3CCN(c4cccc5cccnc45)CC3)nc2N1` [Example A34′, 7-[4-(4-Quinolin-8-yl-piperazin-1-yl)-butoxy]-3,4-dihydro-1H-[1,8]naphthyridin-2-one], `O=C1CCc2ccc(OCCCCN3CCN(c4cccc5ncccc45)CC3)nc2N1` [Example A35′, 7-[4-(4-Quinolin-5-yl-piperazin-1-yl)-butoxy]-3,4-dihydro-1H-[1,8]naphthyridin-2-one] is lower in Emax at 1 µM: 38% for the first, 20% for the second.

Going from `O=C1CCc2ccc(OCCCCN3CCN(c4cccc5ccncc45)CC3)nc2N1` [Example A36′, 7-[4-(4-Isoquinolin-8-yl-piperazin-1-yl)-butoxy]-3,4-dihydro-1H-[1,8]naphthyridin-2-one] to `O=C1CCc2ccc(OCCCCN3CCN(c4cccc5cnccc45)CC3)nc2N1` [Example A37′, 7-[4-(4-Isoquinolin-5-yl-piperazin-1-yl)-butoxy]-3,4-dihydro-1H-[1,8]naphthyridin-2-one], the Emax at 1 µM falls from 62% to 45%.

Compared with `O=C1CCc2ccc(OCCCCN3CCN(c4cccc5ncc(F)cc45)CC3)nc2N1` [Example A38′, 7-{4-[4-(3-Fluoro-quinolin-5-yl)-piperazin-1-yl]-butoxy}-3,4-dihydro-1H-[1,8]naphthyridin-2-one], `O=C1CCc2ccc(OCCCCN3CCN(c4cccc5nccnc45)CC3)nc2N1` [Example A44′, 7-[4-(4-Quinoxalin-5-yl-piperazin-1-yl)-butoxy]-3,4-dihydro-1H-[1,8]naphthyridin-2-one] is higher in Emax at 1 µM: 20% for the first, 29% for the second.

First: Cc1ccc2cccc(N3CCN(CCCCOc4ccc5c(n4)NC(=O)CC5)CC3)c2n1 [Example A40′, 7-{4-[4-(2-Methyl-quinolin-8-yl)-piperazin-1-yl]-butoxy}-3,4-dihydro-1H-[1,8]naphthyridin-2-one]
Second: COc1ccc2cccc(N3CCN(CCCCOc4ccc5c(n4)NC(=O)CC5)CC3)c2n1 [Example A41′, 7-{4-[4-(2-Methoxy-quinolin-8-yl)-piperazin-1-yl]-butoxy}-3,4-dihydro-1H-[1,8]naphthyridin-2-one]
The Emax at 1 µM of the first is lower: 30% for the first, 32% for the second.

`COc1ccc2c(N3CCN(CCCCOc4ccc5c(n4)NC(=O)CC5)CC3)cccc2n1` [Example A43′, 7-{4-[4-(2-Methoxy-quinolin-5-yl)-piperazin-1-yl]-butoxy}-3,4-dihydro-1H-[1,8]naphthyridin-2-one] and `O=C1CCc2ccc(OCCCCN3CCN(c4cccc5ccc(=O)[nH]c45)CC3)nc2N1` [Example A47′, 7-{4-[4-(2-Oxo-1,2-dihydro-quinolin-8-yl)-piperazin-1-yl]-butoxy}-3,4-dihydro-1H-[1,8]naphthyridin-2-one] are the same in Emax at 1 µM: 32% for the first, 32% for the second.

Going from `O=C1CCc2ccc(OCCCCN3CCN(c4cccc5c4NC(=O)CC5)CC3)nc2N1` [Example A48′, 7-{4-[4-(2-Oxo-1,2,3,4-tetrahydro-quinolin-8-yl)-piperazin-1-yl]-butoxy}-3,4-dihydro-1H-[1,8]naphthyridin-2-one] to `CN1C(=O)CCc2cccc(N3CCN(CCCCOc4ccc5c(n4)NC(=O)CC5)CC3)c21` [Example A49′, 7-{4-[4-(1-Methyl-2-oxo-1,2,3,4-tetrahydro-quinolin-8-yl)-piperazin-1-yl]-butoxy}-3,4-dihydro-1H-[1,8]naphthyridin-2-one], the Emax at 1 µM rises from 34% to 38%.
